This test addresses T1, Gag-Pol polyprotein [588-1027]/[588-1147] (Human immunodeficiency virus 1, UniProt P04585).
T1 construct: 588-1027; 588-1147
Kind of test: HIV-1 RT Assay. The source says: The IC50 of reverse transcriptase is the concentration that inhibits 50% of recombinant HIV-1 RT RNA-directed DNA polymerase activity in vitro.

A word on the IC50: it is the midpoint of a concentration-inhibition curve. High values mean lower potency, low ones higher potency.

As to `Cc1nc(CCCCCO)n2nc(Cl)ccc12` [5-{2-chloro-5-methylimidazo[1,5-a]pyridazin-7-yl}pentan-1-ol], half-maximal inhibition (pH 8, 37 °C) (IC50) was put at 100000 nM.
Compound `Cc1nc(CCCCCCC(=O)c2ccccc2)n2nc(-n3cncn3)ccc12` [7-[5-methyl-2-(1H-1,2,4-triazol-1-yl)imidazo[1,5-a]pyridazin-7-yl]-1-phenylheptan-1-one] came in with an IC50 of 100 nM.
On the same count and under the same terms, the value for `Cc1nc(CCCCCCC(=O)c2ccccc2)n2nc(-n3cncc3C)ccc12` [7-[5-methyl-2-(5-methyl-1H-imidazol-1-yl)imidazo[1,5-a]pyridazin-7-yl]-1-phenylheptan-1-one] was 100 nM.

These data come from BindingDB's records for doi:10.1021/jm00076a005 (Glaxo Group Research, 1993).
